Assay results as given in PMC9817970 (Cancers, 2022).

Key:
Experiment in all cases: Kinase panel profiling
Type in all cases: biochemical
Settings in all cases: 10 μM ATP
[1] = biological target: T1, IRAK1 (Homo sapiens, UniProt P51617)
T1 construct: purchased Reaction Biology Corp
Procedure: (§1) Kinase panel profiling was conducted by Reaction Biology Corp. (San Diego, CA, USA). A single dose (1.0 μM) of 6r was tested against 371 recombinant human kinases in the presence of 10 μM ATP.

[2] = biological target: T2, EPHA8 (Homo sapiens, UniProt P29322)
T2 construct: purchased Reaction Biology Corp
Procedure: as §1

[3] = biological target: T3, MST2/STK3 (Homo sapiens, UniProt Q13188)
T3 construct: purchased Reaction Biology Corp
Procedure: as §1

[4] = biological target: T4, RSK1 (Homo sapiens, UniProt Q15418)
T4 construct: purchased Reaction Biology Corp
Procedure: as §1

[5] = biological target: T5, ALK (Homo sapiens, UniProt Q9UM73)
T5 construct: purchased Reaction Biology Corp
Procedure: as §1

[6] = biological target: T6, RSK2 (Homo sapiens, UniProt P51812)
T6 construct: purchased Reaction Biology Corp
Procedure: as §1

[7] = biological target: T7, PIM2 (Homo sapiens, UniProt Q9P1W9)
T7 construct: purchased Reaction Biology Corp
Procedure: as §1

[8] = biological target: T8, STK38/NDR1 (Homo sapiens, UniProt Q15208)
T8 construct: purchased Reaction Biology Corp
Procedure: as §1

[9] = biological target: T9, P38g (Homo sapiens, UniProt P53778)
T9 construct: purchased Reaction Biology Corp
Procedure: as §1

[10] = biological target: T10, DAPK2 (Homo sapiens, UniProt Q9UIK4)
T10 construct: purchased Reaction Biology Corp
Procedure: as §1

[11] = biological target: T11, CDK7/cyclin H (Homo sapiens, UniProt P50613)
T11 construct: purchased Reaction Biology Corp
Procedure: as §1

[12] = biological target: T12, P38b/MAPK11 (Homo sapiens, UniProt Q15759)
T12 construct: purchased Reaction Biology Corp
Procedure: as §1

[13] = biological target: T13, EPHA1 (Homo sapiens, UniProt P21709)
T13 construct: purchased Reaction Biology Corp
Procedure: as §1

[14] = biological target: T14, CLK1 (Homo sapiens, UniProt P49759)
T14 construct: purchased Reaction Biology Corp
Procedure: as §1

[15] = biological target: T15, TRKA (Homo sapiens, UniProt P04629)
T15 construct: purchased Reaction Biology Corp
Procedure: as §1

[16] = biological target: T16, JNK3 (Homo sapiens, UniProt P53779)
T16 construct: purchased Reaction Biology Corp
Procedure: as §1

[17] = biological target: T17, PKCepsilon (Homo sapiens, UniProt Q02156)
T17 construct: purchased Reaction Biology Corp
Procedure: as §1

[18] = biological target: T18, CDK1/cyclin A (Homo sapiens, UniProt P06493)
T18 construct: purchased Reaction Biology Corp
Procedure: as §1

[19] = biological target: T19, CDK6/cyclin D3 (Homo sapiens, UniProt Q00534)
T19 construct: purchased Reaction Biology Corp
Procedure: as §1

[20] = biological target: T20, RON/MST1R (Homo sapiens, UniProt Q04912)
T20 construct: purchased Reaction Biology Corp
Procedure: as §1

[21] = biological target: T21, EPHB3 (Homo sapiens, UniProt P54753)
T21 construct: purchased Reaction Biology Corp
Procedure: as §1

[22] = biological target: T22, CAMK1a (Homo sapiens, UniProt Q14012)
T22 construct: purchased Reaction Biology Corp
Procedure: as §1

[23] = biological target: T23, IKKb/IKBKB (Homo sapiens, UniProt O14920)
T23 construct: purchased Reaction Biology Corp
Procedure: as §1

[24] = biological target: T24, ALK6/BMPR1B (Homo sapiens, UniProt O00238)
T24 construct: purchased Reaction Biology Corp
Procedure: as §1

[25] = biological target: T25, MRCKa/CDC42BPA (Homo sapiens, UniProt Q5VT25)
T25 construct: purchased Reaction Biology Corp
Procedure: as §1

[26] = biological target: T26, TNIK (Homo sapiens, UniProt Q9UKE5)
T26 construct: purchased Reaction Biology Corp
Procedure: as §1

[27] = biological target: T27, JAK2 (Homo sapiens, UniProt O60674)
T27 construct: purchased Reaction Biology Corp
Procedure: as §1

[28] = biological target: T28, PKAcg (Homo sapiens, UniProt P22612)
T28 construct: purchased Reaction Biology Corp
Procedure: as §1

[29] = biological target: T29, TRKB (Homo sapiens, UniProt Q16620)
T29 construct: purchased Reaction Biology Corp
Procedure: as §1

[30] = biological target: T30, IRAK4 (Homo sapiens, UniProt Q9NWZ3)
T30 construct: purchased Reaction Biology Corp
Procedure: as §1

[31] = biological target: T31, MLK3/MAP3K11 (Homo sapiens, UniProt Q16584)
T31 construct: purchased Reaction Biology Corp
Procedure: as §1

[32] = biological target: T32, AKT1 (Homo sapiens, UniProt P31749)
T32 construct: purchased Reaction Biology Corp
Procedure: as §1

[33] = biological target: T33, NIM1 (Homo sapiens, UniProt Q8IY84)
T33 construct: purchased Reaction Biology Corp
Procedure: as §1

[34] = biological target: T34, CK2a (Homo sapiens, UniProt P68400)
T34 construct: purchased Reaction Biology Corp
Procedure: as §1

[35] = biological target: T35, PKD2/PRKD2 (Homo sapiens, UniProt Q9BZL6)
T35 construct: purchased Reaction Biology Corp
Procedure: as §1

[36] = biological target: T36, IGF1R (Homo sapiens, UniProt P08069)
T36 construct: purchased Reaction Biology Corp
Procedure: as §1

[37] = biological target: T37, SLK/STK2 (Homo sapiens, UniProt Q9H2G2)
T37 construct: purchased Reaction Biology Corp
Procedure: as §1

[38] = biological target: T38, GRK5 (Homo sapiens, UniProt P34947)
T38 construct: purchased Reaction Biology Corp
Procedure: as §1

[39] = biological target: T39, IRR/INSRR (Homo sapiens, UniProt P14616)
T39 construct: purchased Reaction Biology Corp
Procedure: as §1

[40] = biological target: T40, CHK1 (Homo sapiens, UniProt O14757)
T40 construct: purchased Reaction Biology Corp
Procedure: as §1

[41] = biological target: T41, CK1g2 (Homo sapiens, UniProt P78368)
T41 construct: purchased Reaction Biology Corp
Procedure: as §1

[42] = biological target: T42, PKCeta (Homo sapiens, UniProt P24723)
T42 construct: purchased Reaction Biology Corp
Procedure: as §1

T23 sequence (O14920 whole entry): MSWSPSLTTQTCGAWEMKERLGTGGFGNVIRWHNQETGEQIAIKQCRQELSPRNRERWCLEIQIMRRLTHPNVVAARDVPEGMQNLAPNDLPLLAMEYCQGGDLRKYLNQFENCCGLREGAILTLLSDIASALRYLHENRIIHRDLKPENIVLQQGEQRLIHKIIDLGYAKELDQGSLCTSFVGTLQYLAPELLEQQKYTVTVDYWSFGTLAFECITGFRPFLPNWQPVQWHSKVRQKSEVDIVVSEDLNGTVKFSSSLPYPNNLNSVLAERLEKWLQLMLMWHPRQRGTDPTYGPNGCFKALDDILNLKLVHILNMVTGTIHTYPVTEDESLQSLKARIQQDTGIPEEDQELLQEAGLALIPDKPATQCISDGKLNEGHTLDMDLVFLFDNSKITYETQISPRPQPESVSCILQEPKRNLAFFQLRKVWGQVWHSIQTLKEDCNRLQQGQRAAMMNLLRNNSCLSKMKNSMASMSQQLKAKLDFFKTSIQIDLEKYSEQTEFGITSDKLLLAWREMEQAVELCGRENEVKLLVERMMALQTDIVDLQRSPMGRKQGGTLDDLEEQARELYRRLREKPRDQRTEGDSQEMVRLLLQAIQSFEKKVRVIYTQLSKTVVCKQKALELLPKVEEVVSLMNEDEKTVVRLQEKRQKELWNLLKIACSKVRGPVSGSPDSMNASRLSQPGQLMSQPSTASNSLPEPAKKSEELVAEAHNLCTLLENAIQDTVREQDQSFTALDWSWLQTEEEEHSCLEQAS
T25 sequence (Q5VT25 whole entry): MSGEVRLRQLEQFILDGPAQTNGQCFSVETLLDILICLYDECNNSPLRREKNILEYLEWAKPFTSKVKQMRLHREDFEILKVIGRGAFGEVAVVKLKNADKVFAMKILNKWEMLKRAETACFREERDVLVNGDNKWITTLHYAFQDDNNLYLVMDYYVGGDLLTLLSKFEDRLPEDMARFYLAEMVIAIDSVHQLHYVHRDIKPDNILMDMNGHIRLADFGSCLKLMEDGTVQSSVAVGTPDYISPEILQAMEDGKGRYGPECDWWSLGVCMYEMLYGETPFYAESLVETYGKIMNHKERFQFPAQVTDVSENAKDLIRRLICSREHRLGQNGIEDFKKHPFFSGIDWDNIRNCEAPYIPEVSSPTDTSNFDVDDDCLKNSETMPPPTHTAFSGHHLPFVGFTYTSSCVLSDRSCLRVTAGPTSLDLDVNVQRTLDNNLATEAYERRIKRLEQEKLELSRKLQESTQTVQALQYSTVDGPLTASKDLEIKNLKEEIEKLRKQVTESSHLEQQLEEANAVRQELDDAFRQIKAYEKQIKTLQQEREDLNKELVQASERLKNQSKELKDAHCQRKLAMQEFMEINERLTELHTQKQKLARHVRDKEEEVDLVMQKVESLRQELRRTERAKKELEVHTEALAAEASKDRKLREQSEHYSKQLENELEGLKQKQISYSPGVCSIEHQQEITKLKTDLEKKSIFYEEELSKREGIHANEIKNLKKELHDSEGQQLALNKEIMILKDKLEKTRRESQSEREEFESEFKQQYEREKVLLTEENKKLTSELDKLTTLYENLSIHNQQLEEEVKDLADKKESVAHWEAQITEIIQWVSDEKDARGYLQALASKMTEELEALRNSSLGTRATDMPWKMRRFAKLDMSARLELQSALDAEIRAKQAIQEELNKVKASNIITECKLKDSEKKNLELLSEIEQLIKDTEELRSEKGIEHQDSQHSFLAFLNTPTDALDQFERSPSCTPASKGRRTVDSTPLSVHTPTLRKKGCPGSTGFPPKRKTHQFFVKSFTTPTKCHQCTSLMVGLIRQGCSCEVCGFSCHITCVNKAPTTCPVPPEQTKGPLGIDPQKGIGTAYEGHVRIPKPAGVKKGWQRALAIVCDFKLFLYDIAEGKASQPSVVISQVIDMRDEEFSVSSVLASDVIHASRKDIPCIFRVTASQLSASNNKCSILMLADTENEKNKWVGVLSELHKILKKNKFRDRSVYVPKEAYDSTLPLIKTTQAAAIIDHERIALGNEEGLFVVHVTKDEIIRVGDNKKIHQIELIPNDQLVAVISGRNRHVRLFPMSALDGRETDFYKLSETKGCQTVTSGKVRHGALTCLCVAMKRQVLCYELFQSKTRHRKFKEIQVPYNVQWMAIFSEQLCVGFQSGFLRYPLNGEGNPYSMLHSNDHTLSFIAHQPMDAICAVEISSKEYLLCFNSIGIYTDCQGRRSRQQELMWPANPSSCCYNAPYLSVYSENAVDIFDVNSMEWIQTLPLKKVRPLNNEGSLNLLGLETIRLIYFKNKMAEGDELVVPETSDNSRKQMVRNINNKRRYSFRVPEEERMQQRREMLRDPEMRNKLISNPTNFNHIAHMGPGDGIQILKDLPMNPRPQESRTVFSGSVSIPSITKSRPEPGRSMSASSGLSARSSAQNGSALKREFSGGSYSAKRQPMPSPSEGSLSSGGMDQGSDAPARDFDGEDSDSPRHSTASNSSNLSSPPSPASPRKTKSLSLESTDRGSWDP
T32 sequence (P31749 whole entry): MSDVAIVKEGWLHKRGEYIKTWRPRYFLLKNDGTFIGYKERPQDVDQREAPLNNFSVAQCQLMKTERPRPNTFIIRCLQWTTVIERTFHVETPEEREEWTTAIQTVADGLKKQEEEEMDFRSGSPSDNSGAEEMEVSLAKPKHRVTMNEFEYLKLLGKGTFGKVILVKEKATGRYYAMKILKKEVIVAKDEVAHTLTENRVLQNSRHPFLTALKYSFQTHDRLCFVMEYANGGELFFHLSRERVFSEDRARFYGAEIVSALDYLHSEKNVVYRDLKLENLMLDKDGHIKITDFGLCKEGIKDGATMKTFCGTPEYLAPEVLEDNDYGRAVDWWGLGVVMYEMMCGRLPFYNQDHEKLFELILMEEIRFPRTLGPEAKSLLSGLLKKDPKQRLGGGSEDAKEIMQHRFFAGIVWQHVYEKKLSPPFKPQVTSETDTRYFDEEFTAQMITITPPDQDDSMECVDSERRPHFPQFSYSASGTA
T4 sequence (Q15418 whole entry): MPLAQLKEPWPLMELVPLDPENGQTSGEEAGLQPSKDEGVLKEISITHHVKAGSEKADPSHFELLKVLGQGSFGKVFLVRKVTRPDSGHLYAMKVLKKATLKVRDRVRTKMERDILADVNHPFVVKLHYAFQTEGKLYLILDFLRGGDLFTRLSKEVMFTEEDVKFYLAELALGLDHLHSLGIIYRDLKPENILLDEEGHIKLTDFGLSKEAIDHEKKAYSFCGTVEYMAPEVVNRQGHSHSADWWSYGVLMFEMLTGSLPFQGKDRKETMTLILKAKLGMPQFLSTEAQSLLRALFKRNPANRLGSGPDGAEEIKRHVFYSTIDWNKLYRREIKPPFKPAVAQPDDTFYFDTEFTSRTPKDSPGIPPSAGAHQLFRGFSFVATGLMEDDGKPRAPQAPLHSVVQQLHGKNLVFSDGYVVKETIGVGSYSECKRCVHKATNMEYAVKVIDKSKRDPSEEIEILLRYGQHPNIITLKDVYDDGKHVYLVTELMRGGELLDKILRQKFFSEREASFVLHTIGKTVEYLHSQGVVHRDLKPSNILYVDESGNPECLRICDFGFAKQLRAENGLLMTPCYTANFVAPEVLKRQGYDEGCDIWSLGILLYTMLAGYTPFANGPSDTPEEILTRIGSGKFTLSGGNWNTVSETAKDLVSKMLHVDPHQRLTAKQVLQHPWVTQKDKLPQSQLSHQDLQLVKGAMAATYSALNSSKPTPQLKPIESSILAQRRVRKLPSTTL
T20 sequence (Q04912 25-1400): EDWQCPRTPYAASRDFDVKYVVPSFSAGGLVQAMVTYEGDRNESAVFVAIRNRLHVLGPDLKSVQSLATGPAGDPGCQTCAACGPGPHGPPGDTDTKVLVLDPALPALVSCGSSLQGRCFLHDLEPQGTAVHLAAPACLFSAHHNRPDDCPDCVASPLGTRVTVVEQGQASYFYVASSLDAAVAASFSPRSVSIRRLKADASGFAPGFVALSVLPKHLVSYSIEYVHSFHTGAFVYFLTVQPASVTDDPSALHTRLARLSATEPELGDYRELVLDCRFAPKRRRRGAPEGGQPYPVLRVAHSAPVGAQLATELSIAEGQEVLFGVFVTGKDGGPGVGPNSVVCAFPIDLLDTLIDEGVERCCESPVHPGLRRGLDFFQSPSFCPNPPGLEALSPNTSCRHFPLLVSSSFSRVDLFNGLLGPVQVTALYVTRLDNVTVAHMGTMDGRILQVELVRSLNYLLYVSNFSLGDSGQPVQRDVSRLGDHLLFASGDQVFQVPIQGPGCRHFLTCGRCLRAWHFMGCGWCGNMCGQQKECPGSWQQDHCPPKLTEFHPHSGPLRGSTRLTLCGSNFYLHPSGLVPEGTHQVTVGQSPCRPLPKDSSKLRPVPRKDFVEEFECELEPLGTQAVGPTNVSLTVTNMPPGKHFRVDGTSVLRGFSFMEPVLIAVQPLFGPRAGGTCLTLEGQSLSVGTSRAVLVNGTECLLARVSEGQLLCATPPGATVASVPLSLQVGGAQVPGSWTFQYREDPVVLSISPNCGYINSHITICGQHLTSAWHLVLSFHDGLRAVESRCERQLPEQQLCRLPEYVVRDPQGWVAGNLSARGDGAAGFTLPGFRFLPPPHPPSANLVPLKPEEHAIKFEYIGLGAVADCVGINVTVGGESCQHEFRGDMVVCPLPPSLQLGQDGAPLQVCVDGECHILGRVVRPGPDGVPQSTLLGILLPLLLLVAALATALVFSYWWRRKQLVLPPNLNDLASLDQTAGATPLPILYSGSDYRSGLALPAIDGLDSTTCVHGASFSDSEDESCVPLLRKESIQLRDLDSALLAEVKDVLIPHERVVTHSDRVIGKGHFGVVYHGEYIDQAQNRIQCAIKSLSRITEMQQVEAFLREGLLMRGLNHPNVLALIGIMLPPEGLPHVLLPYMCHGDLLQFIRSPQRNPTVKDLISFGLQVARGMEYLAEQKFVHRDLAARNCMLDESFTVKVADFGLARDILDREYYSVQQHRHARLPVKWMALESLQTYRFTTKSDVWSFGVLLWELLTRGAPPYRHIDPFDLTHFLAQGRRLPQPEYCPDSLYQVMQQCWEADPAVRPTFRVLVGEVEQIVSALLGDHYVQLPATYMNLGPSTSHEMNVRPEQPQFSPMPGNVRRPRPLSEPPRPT

Cc1ccc(NC(=O)c2ccc(CN3CCN(C)CC3)c(C(F)(F)F)c2)cc1-c1cnc2sc(N)nc2c1 [6r]
inhibition at 1 µM [1]: 0%
inhibition at 1 µM [2]: 72.3%
inhibition at 1 µM [3]: 0%
inhibition at 1 µM [4]: 23.4%
inhibition at 1 µM [5]: 0%
inhibition at 1 µM [6]: 32.4%
inhibition at 1 µM [7]: 0.8%
inhibition at 1 µM [8]: 17.1%
inhibition at 1 µM [9]: 0%
inhibition at 1 µM [10]: 0.3%
inhibition at 1 µM [11]: 3.2%
inhibition at 1 µM [12]: 77.7%
inhibition at 1 µM [13]: 8.2%
inhibition at 1 µM [14]: 0%
inhibition at 1 µM [15]: 9.7%
inhibition at 1 µM [16]: 5.1%
inhibition at 1 µM [17]: 0%
inhibition at 1 µM [18]: 3.8%
inhibition at 1 µM [19]: 4.2%
inhibition at 1 µM [20]: 4.5%
inhibition at 1 µM [21]: 42.5%
inhibition at 1 µM [22]: 8%
inhibition at 1 µM [23]: 0%
inhibition at 1 µM [24]: 15%
inhibition at 1 µM [25]: 0%
inhibition at 1 µM [26]: 22.4%
inhibition at 1 µM [27]: 2%
inhibition at 1 µM [28]: 29.2%
inhibition at 1 µM [29]: 10.6%
inhibition at 1 µM [30]: 0%
inhibition at 1 µM [31]: 23.7%
inhibition at 1 µM [32]: 0%
inhibition at 1 µM [33]: 1.3%
inhibition at 1 µM [34]: 21.7%
inhibition at 1 µM [35]: 28.6%
inhibition at 1 µM [36]: 0%
inhibition at 1 µM [37]: 37.8%
inhibition at 1 µM [38]: 5.8%
inhibition at 1 µM [39]: 0%
inhibition at 1 µM [40]: 9.3%
inhibition at 1 µM [41]: 38.9%
inhibition at 1 µM [42]: 3.1%
